# System: XPD (Rad3) helicase
# Experiment: single-molecule TIRF, Cy3 quenching by FeS cluster
# Format: biochemical, Ferroplasma acidarmanus
# Details: 3'-Cy3 ssDNA, 600 pM XPD, no RPA; 50 mM Tris-HCl pH 7.5, 3 mM MgCl2, 25 °C
compound,measurement,value
Nc1ncnc2c1ncn2[C@@H]1O[C@H](COP(=O)(O)OP(=O)(O)OP(=O)(O)O)[C@@H](O)[C@H]1O [ATP],Km,2.8 ± 1 µM
